Results taken from ChEMBL document CHEMBL5209897, “Affinity Phenotypic Cellular Literature for EUbOPEN Chemogenomics Library wave 3” (2023).

Legend:
[1] = Affinity Phenotypic Cellular interaction (CellTiter-Glo assay (Promega, cell proliferation assay in LNCaP cell line)) EUB0000215b EZH2
[2] = biological target: Hepatocyte growth factor receptor (Homo sapiens) (UniProt P08581); experiment: Affinity Phenotypic Cellular interaction (Cell proliferation assay (in Hs746T cells)) EUB0000293b MET; type: functional, cell-based; design: recommended concentration 1 uM; settings: Affinity Phenotypic Cellular Source Knowledge https://www.sgc-ffm.uni-frankfurt.de/#!specificprobeoverview/BAY-474
[3] = biological target: T1, Serine/threonine-protein kinase PLK1 (Homo sapiens, UniProt P53350); settings: Affinity Phenotypic Cellular Source Knowledge https://doi.org/10.1158/0008-5472.CAN-09-0945
[4] = biological target: NUAK family SNF1-like kinase 1 (Homo sapiens, UniProt O60285); experiment: Affinity Phenotypic Cellular interaction (Western Blot (inhibition of phosphorylation of MYPT1 (myosin […] subunit 1) at Ser445 in HEK293 cells)) EUB0000627a NUAK1; type: cell-based; design: mode of action Inhibitor, recommended concentration 1 uM
[5] = biological target: NUAK family SNF1-like kinase 2 (Homo sapiens, UniProt Q9H093); experiment: Affinity Phenotypic Cellular interaction (Western Blot (inhibition of phosphorylation of MYPT1 (myosin […] subunit 1) at Ser445 in HEK293 cells)) EUB0000627a NUAK2; type: cell-based; design: mode of action Inhibitor, recommended concentration 1 uM
[6] = biological target: Mitogen-activated protein kinase kinase kinase kinase 2 (Homo sapiens, UniProt Q12851); experiment: Affinity Phenotypic Cellular interaction (Western Blot (inhibition in IL-1-induced phosphorylation of MAPK14)) EUB0000238b MAP4K2; design: mode of action Inhibitor, recommended concentration 1 uM
Activin receptor type-1B = Activin receptor type-1B (Homo sapiens, UniProt P36896); experiment: Affinity Phenotypic Cellular interaction (Western blot (inhibition of SMAD2/3 phosphorylation)) EUB0000312b ACVR1B; design: mode of action Inhibitor, recommended concentration 1 uM
[7] = biological target: Bromodomain adjacent to zinc finger domain protein 2A (Homo sapiens, UniProt Q9UIF9); experiment: Affinity Phenotypic Cellular interaction (FRAP assay (displacement of BAZ2A/B from chromatin in SAHA-treated human U2OS cells, transfected with GFP-BAZ2A fusion construct)) EUB0000267b BAZ2A; design: mode of action Negative control for GSK2801, recommended concentration 1 uM
[8] = biological target: Histone-lysine N-methyltransferase KMT5B (Homo sapiens, UniProt Q4FZB7); experiment: Affinity Phenotypic Cellular interaction (Western Blot (decrease in di-methylation of H4K20me in U20S cells)) EUB0000193b SUV420H1; type: cell-based; design: mode of action Inhibitor, recommended concentration 1 uM
[9] = biological target: Histone-lysine N-methyltransferase KMT5C (Homo sapiens, UniProt Q86Y97); experiment: Affinity Phenotypic Cellular interaction (Western Blot (decrease in di-methylation of H4K20me in U20S cells)) EUB0000193b SUV420H2; type: cell-based; design: mode of action Inhibitor, recommended concentration 1 uM
[10] = biological target: Phosphatidylinositol 3-kinase catalytic subunit type 3 (Homo sapiens, UniProt Q8NEB9); experiment: Affinity Phenotypic Cellular interaction (Inhibition of PtdIns(3)P levels (at endosomes probed by suppression of endosomal localization of GFP–2×FYVEHrs; U2OS cells)) EUB0000631a PIK3C3; type: functional; design: mode of action Inhibitor, recommended concentration 1 uM
[11] = biological target: Phosphatidylinositol 4,5-bisphosphate 3-kinase catalytic subunit delta isoform (Homo sapiens) (UniProt O00329); settings: Affinity Phenotypic Cellular Source Knowledge https://doi.org/10.1093/jnci/djj133
[12] = biological target: T2, Phosphatidylinositol 4,5-bisphosphate 3-kinase catalytic subunit gamma isoform (Homo sapiens, UniProt P48736); settings: Affinity Phenotypic Cellular Source Knowledge https://doi.org/10.1093/jnci/djj133
[13] = biological target: Phosphatidylinositol 4,5-bisphosphate 3-kinase catalytic subunit alpha isoform (Homo sapiens) (UniProt P42336); settings: Affinity Phenotypic Cellular Source Knowledge https://doi.org/10.1093/jnci/djj133
[14] = biological target: T3, Phosphatidylinositol 4,5-bisphosphate 3-kinase catalytic subunit beta isoform (Homo sapiens, UniProt P42338); settings: Affinity Phenotypic Cellular Source Knowledge https://doi.org/10.1093/jnci/djj133
Integrin alpha-L [15] = biological target: T4, Integrin alpha-L (Homo sapiens, UniProt P20701); type: functional, cell-based; design: mode of action Inhibitor, recommended concentration 100 nM
Integrin alpha-L [16] = biological target: T4, Integrin alpha-L; type: functional; design: mode of action Negative control for BI-1950, recommended concentration 100 nM
CREB-binding protein = CREB-binding protein (Homo sapiens, UniProt Q92793); experiment: Affinity Phenotypic Cellular interaction (Inhibition of H3K27Ac (DU-145 cells)) EUB0000326a CREBBP
[17] = biological target: Histone acetyltransferase p300 (Homo sapiens, UniProt Q09472); experiment: Affinity Phenotypic Cellular interaction (Inhibition of H3K27Ac (DU-145 cells)) EUB0000326a EP300
[18] = biological target: T1, Serine/threonine-protein kinase PLK1; experiment: Affinity Phenotypic Cellular interaction (Immunoblot activity assay (using LAP-Mps1 WT in U2OS cells)) EUB0000608a PLK1; type: cell-based; design: mode of action Inhibitor, recommended concentration 1 uM
[19] = biological target: T3, Phosphatidylinositol 4,5-bisphosphate 3-kinase catalytic subunit beta isoform; experiment: Affinity Phenotypic Cellular interaction (MesoScale Discovery assay (AKT phoshorylation in MCF 7 cells)) EUB0000685a PIK3CB; type: cell-based; design: mode of action Inhibitor, recommended concentration 100 nM
[20] = biological target: T2, Phosphatidylinositol 4,5-bisphosphate 3-kinase catalytic subunit gamma isoform; experiment: Affinity Phenotypic Cellular interaction (MesoScale Discovery assay (AKT phoshorylation in MCF 7 cells)) EUB0000685a PIK3CG; type: cell-based; design: mode of action Inhibitor, recommended concentration 100 nM

T1 sequence (P53350 whole entry): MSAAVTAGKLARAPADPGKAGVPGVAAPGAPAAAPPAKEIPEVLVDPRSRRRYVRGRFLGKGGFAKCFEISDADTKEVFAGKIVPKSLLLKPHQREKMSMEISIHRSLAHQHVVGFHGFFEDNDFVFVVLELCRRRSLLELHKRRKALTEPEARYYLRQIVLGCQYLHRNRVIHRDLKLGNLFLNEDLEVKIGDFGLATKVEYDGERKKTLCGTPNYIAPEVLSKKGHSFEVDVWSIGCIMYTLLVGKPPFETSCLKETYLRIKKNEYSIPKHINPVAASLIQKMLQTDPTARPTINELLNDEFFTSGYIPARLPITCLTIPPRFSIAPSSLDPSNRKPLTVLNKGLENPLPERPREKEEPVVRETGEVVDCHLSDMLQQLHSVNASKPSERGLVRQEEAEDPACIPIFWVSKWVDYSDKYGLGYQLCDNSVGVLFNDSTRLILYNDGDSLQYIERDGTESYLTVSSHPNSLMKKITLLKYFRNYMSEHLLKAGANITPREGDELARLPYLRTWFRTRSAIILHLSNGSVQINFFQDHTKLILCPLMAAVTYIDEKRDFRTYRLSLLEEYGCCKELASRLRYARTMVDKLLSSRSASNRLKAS
T4 sequence (P20701 whole entry): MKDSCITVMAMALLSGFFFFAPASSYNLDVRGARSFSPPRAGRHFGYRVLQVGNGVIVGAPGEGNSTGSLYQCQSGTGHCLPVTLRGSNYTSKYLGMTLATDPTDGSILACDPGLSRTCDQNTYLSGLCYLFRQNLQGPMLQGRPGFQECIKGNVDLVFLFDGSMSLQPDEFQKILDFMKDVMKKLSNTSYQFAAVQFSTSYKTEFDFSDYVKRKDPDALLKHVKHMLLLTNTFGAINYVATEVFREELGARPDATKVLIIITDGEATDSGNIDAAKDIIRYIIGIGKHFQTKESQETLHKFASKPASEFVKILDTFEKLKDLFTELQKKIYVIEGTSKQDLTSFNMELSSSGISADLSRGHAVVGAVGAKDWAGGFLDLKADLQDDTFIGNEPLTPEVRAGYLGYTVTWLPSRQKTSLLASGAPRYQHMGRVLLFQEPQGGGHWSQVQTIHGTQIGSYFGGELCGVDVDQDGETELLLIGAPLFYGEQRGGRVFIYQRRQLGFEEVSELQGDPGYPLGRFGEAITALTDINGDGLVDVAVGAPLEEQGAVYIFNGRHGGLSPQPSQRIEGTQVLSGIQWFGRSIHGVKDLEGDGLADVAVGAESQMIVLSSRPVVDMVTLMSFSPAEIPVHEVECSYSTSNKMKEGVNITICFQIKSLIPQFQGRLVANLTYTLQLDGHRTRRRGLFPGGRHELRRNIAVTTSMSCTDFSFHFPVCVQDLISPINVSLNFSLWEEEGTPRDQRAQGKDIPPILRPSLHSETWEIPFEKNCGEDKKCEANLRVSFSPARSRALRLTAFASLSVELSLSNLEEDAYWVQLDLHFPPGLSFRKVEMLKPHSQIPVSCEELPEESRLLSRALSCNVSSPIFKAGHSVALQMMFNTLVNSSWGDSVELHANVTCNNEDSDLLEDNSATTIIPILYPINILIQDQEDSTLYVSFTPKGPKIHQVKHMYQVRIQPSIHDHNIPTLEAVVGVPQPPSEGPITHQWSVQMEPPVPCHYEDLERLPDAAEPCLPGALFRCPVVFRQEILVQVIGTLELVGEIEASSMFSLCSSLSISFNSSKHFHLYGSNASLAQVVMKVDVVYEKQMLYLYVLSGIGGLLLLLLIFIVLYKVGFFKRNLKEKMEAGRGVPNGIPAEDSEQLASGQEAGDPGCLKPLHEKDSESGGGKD
Sequence of Hepatocyte growth factor receptor (Homo sapiens) (P08581 whole entry): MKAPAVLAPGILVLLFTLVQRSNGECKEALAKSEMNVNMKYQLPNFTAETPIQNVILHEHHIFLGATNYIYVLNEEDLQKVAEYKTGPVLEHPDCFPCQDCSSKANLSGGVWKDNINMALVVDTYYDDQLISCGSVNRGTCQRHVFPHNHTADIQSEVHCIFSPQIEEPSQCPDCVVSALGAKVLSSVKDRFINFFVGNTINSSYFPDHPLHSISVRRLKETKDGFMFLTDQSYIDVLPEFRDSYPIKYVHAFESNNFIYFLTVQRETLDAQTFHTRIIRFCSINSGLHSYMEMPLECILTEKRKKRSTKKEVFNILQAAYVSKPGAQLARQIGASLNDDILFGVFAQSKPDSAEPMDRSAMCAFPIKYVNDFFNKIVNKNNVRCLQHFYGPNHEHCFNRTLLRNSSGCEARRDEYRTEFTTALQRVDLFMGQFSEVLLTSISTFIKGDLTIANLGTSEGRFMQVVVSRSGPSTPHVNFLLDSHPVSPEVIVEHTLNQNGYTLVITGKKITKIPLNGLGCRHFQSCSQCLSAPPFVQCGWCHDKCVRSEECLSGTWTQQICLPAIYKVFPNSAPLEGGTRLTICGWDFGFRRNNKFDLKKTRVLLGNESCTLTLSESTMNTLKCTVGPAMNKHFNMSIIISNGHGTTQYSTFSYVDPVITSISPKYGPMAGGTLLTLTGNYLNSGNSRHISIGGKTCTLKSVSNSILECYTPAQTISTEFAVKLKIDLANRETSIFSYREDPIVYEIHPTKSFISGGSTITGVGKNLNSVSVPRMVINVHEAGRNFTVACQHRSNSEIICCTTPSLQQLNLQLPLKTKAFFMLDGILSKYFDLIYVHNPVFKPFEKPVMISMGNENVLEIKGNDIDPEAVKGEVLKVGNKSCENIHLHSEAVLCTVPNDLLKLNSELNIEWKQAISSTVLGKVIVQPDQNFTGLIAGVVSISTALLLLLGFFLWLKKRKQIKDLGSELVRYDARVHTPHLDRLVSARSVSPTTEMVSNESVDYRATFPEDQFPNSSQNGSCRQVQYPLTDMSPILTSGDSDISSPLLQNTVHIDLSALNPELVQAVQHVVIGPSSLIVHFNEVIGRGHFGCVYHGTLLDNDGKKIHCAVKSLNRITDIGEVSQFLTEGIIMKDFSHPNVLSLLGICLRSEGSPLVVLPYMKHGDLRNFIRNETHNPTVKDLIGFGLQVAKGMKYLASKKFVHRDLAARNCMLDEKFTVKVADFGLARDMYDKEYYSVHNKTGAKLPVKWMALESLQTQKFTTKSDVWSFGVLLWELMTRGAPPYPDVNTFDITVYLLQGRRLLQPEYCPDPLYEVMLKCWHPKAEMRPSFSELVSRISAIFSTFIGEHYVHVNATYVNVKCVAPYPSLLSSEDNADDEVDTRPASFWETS
Sequence of Phosphatidylinositol 4,5-bisphosphate 3-kinase catalytic subunit delta isoform (Homo sapiens) (O00329 whole entry, canonical isoform): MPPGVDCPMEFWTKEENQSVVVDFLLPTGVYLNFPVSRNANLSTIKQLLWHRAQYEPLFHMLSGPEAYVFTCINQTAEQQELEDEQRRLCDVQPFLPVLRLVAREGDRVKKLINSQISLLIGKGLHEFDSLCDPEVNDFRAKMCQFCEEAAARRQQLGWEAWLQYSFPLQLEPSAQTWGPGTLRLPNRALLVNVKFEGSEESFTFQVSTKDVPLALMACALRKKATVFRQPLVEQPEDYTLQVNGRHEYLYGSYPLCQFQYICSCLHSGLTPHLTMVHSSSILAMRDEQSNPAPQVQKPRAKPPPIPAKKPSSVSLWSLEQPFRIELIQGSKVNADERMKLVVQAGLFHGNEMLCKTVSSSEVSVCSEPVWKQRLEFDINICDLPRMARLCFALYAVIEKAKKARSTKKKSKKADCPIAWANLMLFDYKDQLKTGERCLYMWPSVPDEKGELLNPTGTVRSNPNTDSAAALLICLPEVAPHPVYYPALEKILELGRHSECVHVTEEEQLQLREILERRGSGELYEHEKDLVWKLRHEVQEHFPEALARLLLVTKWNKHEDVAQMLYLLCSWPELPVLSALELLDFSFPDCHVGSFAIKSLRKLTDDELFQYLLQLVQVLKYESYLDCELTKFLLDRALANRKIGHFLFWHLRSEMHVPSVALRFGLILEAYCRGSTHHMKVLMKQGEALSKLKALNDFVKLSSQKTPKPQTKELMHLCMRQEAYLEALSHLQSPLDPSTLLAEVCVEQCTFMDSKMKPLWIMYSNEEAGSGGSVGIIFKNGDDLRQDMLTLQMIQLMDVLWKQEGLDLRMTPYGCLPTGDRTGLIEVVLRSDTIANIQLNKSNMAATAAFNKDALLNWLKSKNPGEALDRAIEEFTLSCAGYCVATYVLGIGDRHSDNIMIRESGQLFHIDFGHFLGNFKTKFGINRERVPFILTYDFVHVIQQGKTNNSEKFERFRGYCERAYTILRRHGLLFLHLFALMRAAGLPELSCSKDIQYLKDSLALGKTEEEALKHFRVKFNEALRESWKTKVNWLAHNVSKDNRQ
Sequence of Phosphatidylinositol 3-kinase catalytic subunit type 3 (Q8NEB9 whole entry, canonical isoform): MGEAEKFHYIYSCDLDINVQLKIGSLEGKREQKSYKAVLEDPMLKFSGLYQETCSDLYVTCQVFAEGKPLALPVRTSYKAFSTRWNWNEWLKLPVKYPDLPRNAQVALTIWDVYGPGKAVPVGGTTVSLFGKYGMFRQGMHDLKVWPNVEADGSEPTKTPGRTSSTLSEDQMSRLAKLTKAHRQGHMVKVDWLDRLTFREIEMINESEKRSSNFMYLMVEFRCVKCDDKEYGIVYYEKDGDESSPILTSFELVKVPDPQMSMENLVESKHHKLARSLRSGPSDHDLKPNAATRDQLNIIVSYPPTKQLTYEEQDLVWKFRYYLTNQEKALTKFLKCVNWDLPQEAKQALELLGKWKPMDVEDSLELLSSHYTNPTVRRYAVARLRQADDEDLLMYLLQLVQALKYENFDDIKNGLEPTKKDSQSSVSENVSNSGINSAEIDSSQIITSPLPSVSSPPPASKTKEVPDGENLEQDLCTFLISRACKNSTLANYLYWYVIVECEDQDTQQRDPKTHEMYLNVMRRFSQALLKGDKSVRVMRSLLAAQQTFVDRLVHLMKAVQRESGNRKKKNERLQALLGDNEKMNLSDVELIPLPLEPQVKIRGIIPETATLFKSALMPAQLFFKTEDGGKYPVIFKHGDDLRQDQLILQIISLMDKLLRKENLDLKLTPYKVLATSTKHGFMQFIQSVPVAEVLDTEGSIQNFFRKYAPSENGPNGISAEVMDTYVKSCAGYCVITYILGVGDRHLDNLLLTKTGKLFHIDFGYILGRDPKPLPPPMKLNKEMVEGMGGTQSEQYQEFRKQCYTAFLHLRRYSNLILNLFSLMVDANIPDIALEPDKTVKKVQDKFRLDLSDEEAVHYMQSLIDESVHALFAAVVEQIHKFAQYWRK

Q: Which IC50 [1] does the source give for `CCCc1cc(C)[nH]c(=O)c1CNC(=O)c1cc(-c2ccnc(N3CCN(C)CC3)c2)cc2c1cnn2C(C)C` here?
A: Its IC50 is 2900 nM.

Q: For `CC1=C(C#N)C(c2ccc3[nH]nc(C)c3c2)C(C#N)=C(C)N1`, which IC90 [2] is on record?
A: Its IC90 is 56 nM.

Q: Which GIC50 [3] does the source give for `C[C@@H](Oc1cc(-n2cnc3ccc(CN4CCN(C)CC4)cc32)sc1C(N)=O)c1ccccc1C(F)(F)F` here?
A: Its GIC50 is 6.4 nM.

Q: Which results are given for `CCC(=O)Nc1cccc(Oc2nc(Nc3ccc(N4CCN(C)CC4)cc3OC)ncc2Cl)c1`?
A: EC50 [4]: > 3000 nM; EC50 [5]: > 3000 nM

Q: Which EC50 [6] does the source give for `CNc1cc(Oc2cc(C(=O)Nc3cc(N4CCN(C)CC4)cc(C(F)(F)F)c3)ccc2C)ncn1` here?
A: Its EC50 is 500 nM.

Q: With `Cc1cnc(-c2cc(Cl)ccc2F)cc1-n1c(=O)n(CC(N)=O)c2cnccc21` [TP-008] as the molecule, how does the EC50 (Activin receptor type-1B) read?
A: Its EC50 is over 1000 nM.

Q: With `CCCOc1ccn2c(C(C)=O)cc(-c3cccc(OC)c3)c2c1` as the molecule, how does the IC50 [7] read?
A: Its IC50 is over 100000 nM.

Q: What does the source list for `Clc1cc2c(NC3CCCC3)nnc(-c3ccncc3)c2cc1Cl`?
A: EC50 [8]: 262 nM; EC50 [9]: 262 nM

Q: Which IC50 [10] does the source give for `CC(C)(O)CNc1ncc(-c2ccnc(Nc3ccnc(Cl)c3)n2)c(CC2CC2)n1` here?
A: The IC50 was under 100 nM.

Q: With `FC(F)c1nc2ccccc2n1-c1nc(N2CCOCC2)nc(N2CCOCC2)n1` as the molecule, how does the GI50 [11] read?
A: The GI50 was 28 nM.

Q: What about the GI50 [12] of the same molecule?
A: The GI50 was 28 nM.

Q: What about the GI50 [13] of the same molecule?
A: The GI50 was 28 nM.

Q: What about the GI50 [14] of the same molecule?
A: Its GI50 is 28 nM.

Q: With `C[C@H](NC(=O)c1cnc2n1[C@](C)(Cc1ccc(C#N)cc1)C(=O)N2c1cc(Cl)c(F)c(Cl)c1)C(=O)NC1(c2ccccn2)CC1` [BI 1950] as the molecule, how does the IC50 (Integrin alpha-L [15]) read?
A: The IC50 was 3 nM.

Q: For `C[C@@]1(Cc2ccc(C#N)cc2)C(=O)N(c2cc(Cl)cc(Cl)c2)c2ncc(C(=O)NC3(c4nc(C5CCC5)no4)CC3)n21` [BI 9446], which IC50 (Integrin alpha-L [16]) is on record?
A: The IC50 was over 1000 nM.

Q: What does the source list for `CNC(=O)Nc1ccc2c(c1)[C@@]1(CC2)OC(=O)N(CC(=O)N(Cc2ccc(F)cc2)[C@@H](C)C(F)(F)F)C1=O` [A-486]?
A: IC50 (CREB-binding protein): > 10000 nM; IC50 [17]: > 10000 nM

Q: For `CCOc1cc(N2CCC(O)CC2)ccc1Nc1ncc2c(n1)N(C1CCCC1)CCC(=O)N2C`, which IC50 [18] is on record?
A: The IC50 was 160 nM.

Q: Which results are given for `Cc1nc(-c2cn3c(n2)-c2ccc(-c4cnn(C(C)(C)C(N)=O)c4)cc2OCC3)n(C(C)C)n1` [TASELISIB]?
A: IC50 [19]: 4 nM; IC50 [20]: 4 nM
